Reference: PubChem BioAssay AID2060619 (Molecular Pharmacology Branch, DTP, NCI, 2025)

Test system: 323965-272-R-J2-PDC complex spheroid viability
Assay: Anticancer human tumor 323965-272-R-J2-PDC patient-derived pancreatic carcinoma cell line growth inhibition [CLK]
Settings: for IC50: curve of first compound; for viability, T/C: stronger effect = lower value
Outline: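 Patient-derived tumor cells grown as complex spheroids with HUVEC endothelial cells and mesenchymal stem cells, treated with drug combinations. Concentrations descend in half-log steps from near clinical Cmax, or from 10 microM if Cmax unknown.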

[1] = second compound 0.0316 µM, first compound 0.0316 µM
[2] = second compound 0.0316 µM, first compound 0.1 µM
[3] = second compound 0.0316 µM, first compound 0.316 µM
[4] = second compound 0.0316 µM, first compound 1 µM
[5] = second compound 0.0316 µM, first compound 3.16 µM
[6] = second compound 0.0316 µM, first compound 10 µM
[7] = second compound 0.1 µM, first compound 0.0316 µM
[8] = second compound 0.1 µM, first compound 0.1 µM
[9] = second compound 0.1 µM, first compound 0.316 µM
[10] = second compound 0.1 µM, first compound 1 µM
[11] = second compound 0.1 µM, first compound 3.16 µM
[12] = second compound 0.1 µM, first compound 10 µM
[13] = second compound 0.316 µM, first compound 0.0316 µM
[14] = second compound 0.316 µM, first compound 0.1 µM
[15] = second compound 0.316 µM, first compound 0.316 µM
[16] = second compound 0.316 µM, first compound 1 µM
[17] = second compound 0.316 µM, first compound 3.16 µM
[18] = second compound 0.316 µM, first compound 10 µM
[19] = second compound 1 µM, first compound 0.0316 µM
[20] = second compound 1 µM, first compound 0.1 µM
[21] = second compound 1 µM, first compound 0.316 µM
[22] = second compound 1 µM, first compound 1 µM
[23] = second compound 1 µM, first compound 3.16 µM
[24] = second compound 1 µM, first compound 10 µM
[25] = second compound 3.16 µM, first compound 0.0316 µM
[26] = second compound 3.16 µM, first compound 0.1 µM
[27] = second compound 3.16 µM, first compound 0.316 µM
[28] = second compound 3.16 µM, first compound 1 µM
[29] = second compound 3.16 µM, first compound 3.16 µM
[30] = second compound 3.16 µM, first compound 10 µM
[31] = second compound 10 µM, first compound 0.0316 µM
[32] = second compound 10 µM, first compound 0.1 µM
[33] = second compound 10 µM, first compound 0.316 µM
[34] = second compound 10 µM, first compound 1 µM
[35] = second compound 10 µM, first compound 3.16 µM
[36] = second compound 10 µM, first compound 10 µM
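Note: spheroids exposed to agents for seven days before readout.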
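Throughout, for viability, T/C: percent of DMSO vehicle control wells so 100% = untreated growth.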

Question: Which results are given for CC(=O)O[C@H]1C(=O)[C@@]2(C)[C@H]([C@H](OC(=O)c3ccccc3)[C@]3(O)C[C@H](OC(=O)[C@H](O)[C@@H](NC(=O)c4ccccc4)c4ccccc4)C(C)=C1C3(C)C)[C@]1(OC(C)=O)CO[C@@H]1C[C@@H]2O + CNC(=O)c1ccc(Nc2nc(OC3CCCC3)c3c(-c4ccc5nc(C)oc5c4)c[nH]c3n2)c(OC)c1?
Answer: IC50 (second compound 0.0316 µM): < 0.0316 µM; IC50 (second compound 0.1 µM): < 0.0316 µM; IC50 (second compound 0.316 µM): > 10 µM; IC50 (second compound 1 µM): > 10 µM; IC50 (second compound 3.16 µM): < 0.0316 µM; IC50 (second compound 10 µM): < 0.0316 µM; viability, T/C [1]: 32.8%; viability, T/C [2]: 40.5%; viability, T/C [3]: 34.4%; viability, T/C [4]: 33.2%; viability, T/C [5]: 33.1%; viability, T/C [6]: 36.9%; viability, T/C [7]: 45.3%; viability, T/C [8]: 42.7%; viability, T/C [9]: 41.9%; viability, T/C [10]: 37.9%; viability, T/C [11]: 38.5%; viability, T/C [12]: 38.5%; viability, T/C [13]: 66.5%; viability, T/C [14]: 68.7%; viability, T/C [15]: 62.7%; viability, T/C [16]: 67.7%; viability, T/C [17]: 68.5%; viability, T/C [18]: 76.1%; viability, T/C [19]: 55.4%; viability, T/C [20]: 60.1%; viability, T/C [21]: 67.5%; viability, T/C [22]: 63.2%; viability, T/C [23]: 75.8%; viability, T/C [24]: 74.5%; viability, T/C [25]: 48.6%; viability, T/C [26]: 53.5%; viability, T/C [27]: 49.8%; viability, T/C [28]: 56.1%; viability, T/C [29]: 65.3%; viability, T/C [30]: 60.4%; viability, T/C [31]: 44.6%; viability, T/C [32]: 49%; viability, T/C [33]: 49.2%; viability, T/C [34]: 55.8%; viability, T/C [35]: 68.7%; viability, T/C [36]: 60.4%

Question: What does the source list for COc1ccc([C@@H](O)c2cc(-c3ncnc4cc(N5CCOCC5)ccc34)c(F)cc2Cl)nn1 + CNC(=O)c1ccc(Nc2nc(OC3CCCC3)c3c(-c4ccc5nc(C)oc5c4)c[nH]c3n2)c(OC)c1?
Answer: IC50 (second compound 0.0316 µM): 9.72 µM; IC50 (second compound 0.1 µM): > 10 µM; IC50 (second compound 0.316 µM): 1.5 µM; IC50 (second compound 1 µM): < 0.0316 µM; IC50 (second compound 3.16 µM): < 0.0316 µM; IC50 (second compound 10 µM): < 0.0316 µM; viability, T/C [1]: 99.2%; viability, T/C [2]: 127%; viability, T/C [3]: 110%; viability, T/C [4]: 95.3%; viability, T/C [5]: 79.2%; viability, T/C [6]: 48.9%; viability, T/C [7]: 85.9%; viability, T/C [8]: 79.9%; viability, T/C [9]: 77.7%; viability, T/C [10]: 70.7%; viability, T/C [11]: 63.8%; viability, T/C [12]: 49.1%; viability, T/C [13]: 62%; viability, T/C [14]: 67%; viability, T/C [15]: 49.9%; viability, T/C [16]: 52.1%; viability, T/C [17]: 49.4%; viability, T/C [18]: 40.3%; viability, T/C [19]: 49.2%; viability, T/C [20]: 42.1%; viability, T/C [21]: 42.6%; viability, T/C [22]: 43%; viability, T/C [23]: 40.3%; viability, T/C [24]: 28.5%; viability, T/C [25]: 48.7%; viability, T/C [26]: 41.2%; viability, T/C [27]: 43.7%; viability, T/C [28]: 33.5%; viability, T/C [29]: 32.1%; viability, T/C [30]: 26.8%; viability, T/C [31]: 41.4%; viability, T/C [32]: 47.9%; viability, T/C [33]: 35.7%; viability, T/C [34]: 39.8%; viability, T/C [35]: 31.2%; viability, T/C [36]: 26.7%

Question: What does the source list for COc1cccc2c1C(=O)c1c(O)c3c(c(O)c1C2=O)CC(O)(C(=O)CO)CC3OC1CC(N)C(O)C(C)O1 (stereo unspecified) + CNC(=O)c1ccc(Nc2nc(OC3CCCC3)c3c(-c4ccc5nc(C)oc5c4)c[nH]c3n2)c(OC)c1?
Answer: IC50 (second compound 0.0316 µM): 0.104 µM; IC50 (second compound 0.1 µM): 0.135 µM; IC50 (second compound 0.316 µM): < 0.0316 µM; IC50 (second compound 1 µM): < 0.0316 µM; IC50 (second compound 3.16 µM): < 0.0316 µM; IC50 (second compound 10 µM): < 0.0316 µM; viability, T/C [1]: 69.4%; viability, T/C [2]: 38.1%; viability, T/C [3]: 41.5%; viability, T/C [4]: 28.1%; viability, T/C [5]: 19.5%; viability, T/C [6]: 0.64%; viability, T/C [7]: 73.2%; viability, T/C [8]: 44.8%; viability, T/C [9]: 39.6%; viability, T/C [10]: 28%; viability, T/C [11]: 19.7%; viability, T/C [12]: 0.62%; viability, T/C [13]: 48%; viability, T/C [14]: 44.1%; viability, T/C [15]: 29.9%; viability, T/C [16]: 22.7%; viability, T/C [17]: 13.4%; viability, T/C [18]: 0.67%; viability, T/C [19]: 40.8%; viability, T/C [20]: 30%; viability, T/C [21]: 22.7%; viability, T/C [22]: 17.4%; viability, T/C [23]: 9.89%; viability, T/C [24]: 0.56%; viability, T/C [25]: 30.6%; viability, T/C [26]: 30.9%; viability, T/C [27]: 20.8%; viability, T/C [28]: 13.7%; viability, T/C [29]: 7.23%; viability, T/C [30]: 0.56%; viability, T/C [31]: 37.2%; viability, T/C [32]: 25.6%; viability, T/C [33]: 24.2%; viability, T/C [34]: 15.4%; viability, T/C [35]: 6.06%; viability, T/C [36]: 0.58%
